Columns and labels:
[1] = target: T1, hChoKβ FL (Homo sapiens, UniProt Q9Y259); assay: Biochemical kinase inhibition assay (Kinase-Glo Luminescent Kinase Assay) on hChoKβ FL; conditions: ATP 5 μM, choline 20 μM, 60 minutes at rt; read-out: IC50 ChoKβ
T1 construct: hChoKβ full length (FL), corresponding to aminoacids 2-395; GST (N, cleaved yes); Prescission Protease recognition site (N, cleaved yes); made in house; host or cells: Escherichia coli BL21pLysS (DE3)

[2] = target: T2, Δ49N-hChoKα (Homo sapiens, UniProt P35790); assay: Biochemical kinase inhibition assay (Kinase-Glo Luminescent Kinase Assay) on Δ49N-hChoKα; conditions: ATP 5 μM, choline 5 μM, 60 minutes at rt; read-out: IC50 ChoKα
T2 construct: cDNA fragment 362-1534, corresponding to aminoacids 50-457; GST (N, cleaved yes); Prescission Protease recognition site (N, cleaved yes); made in house; host or cells: Escherichia coli BL21pLysS (DE3)
T2 sequence (P35790 50-457, stated change not applied): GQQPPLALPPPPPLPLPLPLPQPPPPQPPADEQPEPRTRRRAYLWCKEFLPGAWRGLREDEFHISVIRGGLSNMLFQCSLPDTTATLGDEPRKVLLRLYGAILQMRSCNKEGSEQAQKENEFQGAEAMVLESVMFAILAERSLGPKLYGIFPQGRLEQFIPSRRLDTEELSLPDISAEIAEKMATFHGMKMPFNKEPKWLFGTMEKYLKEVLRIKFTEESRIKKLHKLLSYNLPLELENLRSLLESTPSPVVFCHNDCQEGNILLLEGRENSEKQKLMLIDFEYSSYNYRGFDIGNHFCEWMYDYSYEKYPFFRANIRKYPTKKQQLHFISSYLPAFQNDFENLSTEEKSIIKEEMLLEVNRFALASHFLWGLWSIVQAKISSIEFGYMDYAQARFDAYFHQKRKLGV
Procedure: The biochemical activity of compounds against Δ49N-ChoKα and ChoKβ FL were determined using the Kinase-Glo™ Luminescent Kinase Assay (Promega cat. V6711).
Compounds were 3-fold serially diluted from 10 to 0.0005 μM, then incubated for 60 minutes at rt in the presence of ATP 5 μM, choline (5 μM for ChoKα and 20 μM for ChoKβ) and enzyme in a final volume of 19 μL of kinase buffer (50 mM Hepes pH 7.5, 10 mM MgCl2, 1 mM DTT, 3 μM Na3VO4 and 0.2 mg/mL BSA). The final concentration of DMSO was 1%.
At the end of the incubation, an amount of 19 μL of KinaseGlo Reagent was added to each well to stop the reaction and after 30 minutes the luminescence signal was measured using ViewLux reader (Perkin Elmer).
The data per each molecule are analyzed by an internally customized version of the SW package “Assay Explorer” which provides sigmoidal fittings of the ten-dilution curves for IC50 determination using a 4 parameter logistic equation: y=bottom+(top−bottom)/(1+10^((log IC50−x)*slope)) where x is the logarithm of the inhibitor concentration, y is the response; y starts at bottom and goes to top with a sigmoid shape.

T1 sequence (Q9Y259 2-395): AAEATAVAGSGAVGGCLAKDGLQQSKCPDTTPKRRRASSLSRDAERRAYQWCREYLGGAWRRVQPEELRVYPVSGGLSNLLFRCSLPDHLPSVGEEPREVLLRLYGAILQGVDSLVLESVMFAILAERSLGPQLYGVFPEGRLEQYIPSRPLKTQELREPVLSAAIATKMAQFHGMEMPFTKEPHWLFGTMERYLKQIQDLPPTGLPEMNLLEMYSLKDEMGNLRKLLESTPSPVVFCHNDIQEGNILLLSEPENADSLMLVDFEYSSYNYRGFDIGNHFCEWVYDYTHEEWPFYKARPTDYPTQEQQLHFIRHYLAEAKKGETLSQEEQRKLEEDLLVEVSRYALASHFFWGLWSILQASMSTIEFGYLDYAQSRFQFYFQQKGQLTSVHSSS

COc1cccc(NC(=O)[C@H]2CC[C@@H](n3cnc4c(N)nc(-c5ccncc5)nc43)CC2)c1 [cpd 9, cis-4-[6-amino-2-(pyridin-4-yl)-9H-purin-9-yl]-N-(3-methoxyphenyl)cyclohexanecarboxamide] gave an IC50 [1] of over 10000 nM.

With COc1cccc(NC(=O)[C@H]2CC[C@@H](n3cnc4c(N)nc(-c5ccnc(F)c5)nc43)CC2)c1 [cpd 15, cis-4-[6-amino-2-(2-fluoropyridin-4-yl)-9H-purin-9-yl]-N-(3-methoxyphenyl)cyclohexanecarboxamide] the IC50 [2] was 419 nM.

COc1cccc(NC(=O)[C@H]2CC[C@@H](n3cnc4c(N)nc(-c5ccc(F)nc5)nc43)CC2)c1 [cpd 19, cis-4-[6-amino-2-(6-fluoropyridin-3-yl)-9H-purin-9-yl]-N-(3-methoxyphenyl)cyclohexanecarboxamide] was tested, and the IC50 [2] was 795 nM.

COc1cccc(NC(=O)[C@H]2CC[C@@H](n3cnc4c(N)nc(-c5ccnc(OC)c5)nc43)CC2)c1 [cpd 21, cis-4-[6-amino-2-(2-methoxypyridin-4-yl)-9H-purin-9-yl]-N-(3-methoxyphenyl)cyclohexanecarboxamide] showed an IC50 [2] of 883 nM.

For COc1cccc(NC(=O)[C@H]2CC[C@@H](n3cnc4c(N)nc(-c5ccc(C(=O)Nc6ccc(CN7CCN(C)CC7)cc6)cc5)nc43)CC2)c1 [cpd 29, 4-(6-amino-9-{cis-4-[(3-methoxyphenyl)carbamoyl]cyclohexyl}-9H-purin-2-yl)-N-{4-[(4-methylpiperazin-1-yl)methyl]phenyl}benzamide], the IC50 [1] was 1880 nM and the IC50 [2] was 257 nM.

Work on COc1cccc(NC(=O)[C@H]2CC[C@@H](n3cnc4c(N)nc(-c5cccc(C(=O)Nc6ccc(CN7CCN(C)CC7)cc6)c5)nc43)CC2)c1 [cpd 30, 3-(6-amino-9-{cis-4-[(3-methoxyphenyl)carbamoyl]cyclohexyl}-9H-purin-2-yl)-N-{4-[(4-methylpiperazin-1-yl)methyl]phenyl}benzamide] yielded an IC50 [1] of over 10000 nM and an IC50 [2] of 305 nM.

For COc1cccc(NC(=O)[C@H]2CC[C@@H](n3cnc4c(N)nc(-c5cccc(C(=O)Nc6ccc(CN7CCC(N(C)C)CC7)cc6)c5)nc43)CC2)c1 [cpd 31, 3-(6-amino-9-{cis-4-[(3-methoxyphenyl)carbamoyl]cyclohexyl}-9H-purin-2-yl)-N-(4-{[4-(dimethylamino)piperidin-1-yl]methyl}phenyl)benzamide], the IC50 [1] was over 10000 nM and the IC50 [2] was 40 nM.

COc1cccc(NC(=O)[C@H]2CC[C@@H](n3cnc4c(N)nc(-c5ccc(C(=O)Nc6ccc(CN7CCC(N(C)C)CC7)cc6)cc5)nc43)CC2)c1 [cpd 33, 4-(6-amino-9-{cis-4-[(3-methoxyphenyl)carbamoyl]cyclohexyl}-9H-purin-2-yl)-N-(4-{[4-(dimethylamino)piperidin-1-yl]methyl}phenyl)benzamide] gave an IC50 [1] of 4570 nM and an IC50 [2] of 21 nM.

CN1CCN(Cc2ccc(NC(=O)Cc3ccc(NC(=O)[C@H]4CC[C@@H](n5cnc6c(N)nc(Cl)nc65)CC4)cc3)cc2C(F)(F)F)CC1 [cpd 35, cis-4-(6-amino-2-chloro-9H-purin-9-yl)-N-{4-[2-({4-[(4-methylpiperazin-1-yl)methyl]-3-(trifluoromethyl)phenyl}amino)-2-oxoethyl]phenyl}cyclohexanecarboxamide] was tested, and the IC50 [1] was 430 nM and the IC50 [2] was 13 nM.

CN1CCN(Cc2ccc(NC(=O)Cc3ccc(NC(=O)[C@H]4CC[C@@H](n5cnc6c(N)nc(Cl)nc65)CC4)cc3)cc2)CC1 [cpd 36, cis-4-(6-amino-2-chloro-9H-purin-9-yl)-N-{4-[2-({4-[(4-methylpiperazin-1-yl)methyl]phenyl}amino)-2-oxoethyl]phenyl}cyclohexanecarboxamide] showed an IC50 [1] of 1350 nM and an IC50 [2] of 53 nM.

With COc1ccc(NC(=O)[C@H]2CC[C@@H](n3cnc4c(N)nc(-c5ccncc5)nc43)CC2)cc1OC [cpd 37, cis-4-[6-amino-2-(pyridin-4-yl)-9H-purin-9-yl]-N-(3,4-dimethoxyphenyl)cyclohexanecarboxamide] the IC50 [1] was over 10000 nM and the IC50 [2] was 844 nM.

With COc1cccc(NC(=O)[C@H]2CC[C@@H](n3cnc4c(N)nc(I)nc43)CC2)c1 [cpd 41, cis-4-(6-amino-2-iodo-9H-purin-9-yl)-N-(3-methoxyphenyl)cyclohexanecarboxamide] the IC50 [1] was over 10000 nM and the IC50 [2] was 441 nM.

In the case of C#Cc1nc(N)c2ncn([C@H]3CC[C@@H](C(=O)Nc4cccc(OC)c4)CC3)c2n1 [cpd 45, cis-4-(6-amino-2-ethynyl-9H-purin-9-yl)-N-(3-methoxyphenyl)cyclohexanecarboxamide], the IC50 [1] is reported as 4980 nM and the IC50 [2] is reported as 195 nM.

With Cc1cccc(NC(=O)[C@H]2CC[C@@H](n3cnc4c(N)nc(Cl)nc43)CC2)c1 [cpd 48, cis-4-(6-amino-2-chloro-9H-purin-9-yl)-N-(3-methylphenyl)cyclohexanecarboxamide] the IC50 [1] was over 10000 nM and the IC50 [2] was 283 nM.

Work on Cc1cccc(NC(=O)[C@H]2CC[C@@H](n3cnc4c(N)nc(-c5ccncc5)nc43)CC2)c1 [cpd 50, cis-4-[6-amino-2-(pyridin-4-yl)-9H-purin-9-yl]-N-(3-methylphenyl)cyclohexanecarboxamide] yielded an IC50 [1] of over 10000 nM and an IC50 [2] of 311 nM.

Nc1nc(Cl)nc2c1ncn2[C@H]1CC[C@@H](C(N)=O)CC1 [cpd 53, cis-4-(6-amino-2-chloro-9H-purin-9-yl)cyclohexanecarboxamide] was tested, and the IC50 [1] was over 10000 nM and the IC50 [2] was 855 nM.

COc1cccc(NC(=O)[C@H]2CC[C@@H](n3cnc4c(N)nc(C#CCO)nc43)CC2)c1 [cpd 60, cis-4-[6-amino-2-(3-hydroxyprop-1-yn-1-yl)-9H-purin-9-yl]-N-(3-methoxyphenyl)cyclohexanecarboxamide] gave an IC50 [1] of over 10000 nM and an IC50 [2] of 854 nM.

Nc1nc(Cl)nc2c1ncn2[C@H]1CC[C@@H](C(=O)Nc2nnc(C(F)(F)F)s2)CC1 [cpd 64, cis-4-(6-amino-2-chloro-9H-purin-9-yl)-N-[5-(trifluoromethyl)-1,3,4-thiadiazol-2-yl]cyclohexanecarboxamide] gave an IC50 [1] of over 10000 nM and an IC50 [2] of 196 nM.

In the case of Cc1csc(NC(=O)[C@H]2CC[C@@H](n3cnc4c(N)nc(I)nc43)CC2)n1 [cpd 70, cis-4-(6-amino-2-iodo-9H-purin-9-yl)-N-(4-methyl-1,3-thiazol-2-yl)cyclohexanecarboxamide], the IC50 [1] is reported as over 10000 nM and the IC50 [2] is reported as 34 nM.

With Nc1nc(Cl)nc2c1ncn2[C@H]1CC[C@@H](C(=O)Nc2ccc(C(=O)NC3CCCCC3)cc2)CC1 [cpd 71, 4-({[cis-4-(6-amino-2-chloro-9H-purin-9-yl)cyclohexyl]carbonyl}amino)-N-cyclohexylbenzamide] the IC50 [1] was 2840 nM and the IC50 [2] was 375 nM.

Work on Nc1nc(Cl)nc2c1ncn2[C@H]1CC[C@@H](C(=O)Nc2nccs2)CC1 [cpd 72, cis-4-(6-amino-2-chloro-9H-purin-9-yl)-N-(1,3-thiazol-2-yl)cyclohexanecarboxamide] yielded an IC50 [1] of over 10000 nM and an IC50 [2] of 61 nM.

C#Cc1nc(N)c2ncn([C@H]3CC[C@@H](C(=O)Nc4nc(C)cs4)CC3)c2n1 [cpd 77, cis-4-(6-amino-2-ethynyl-9H-purin-9-yl)-N-(4-methyl-1,3-thiazol-2-yl)cyclohexanecarboxamide] showed an IC50 [1] of 5970 nM and an IC50 [2] of 18 nM.

For Cc1csc(NC(=O)[C@H]2CC[C@@H](n3cnc4c(N)nc(-c5ccncc5)nc43)CC2)n1 [cpd 81, cis-4-[6-amino-2-(pyridin-4-yl)-9H-purin-9-yl]-N-(4-methyl-1,3-thiazol-2-yl)cyclohexanecarboxamide], the IC50 [1] was over 10000 nM and the IC50 [2] was 125 nM.

For COc1cccc(NC(=O)[C@H]2CC[C@@H](n3cnc4c(N)nc(OC)nc43)CC2)c1 [cpd 83, cis-4-(6-amino-2-methoxy-9H-purin-9-yl)-N-(3-methoxyphenyl)cyclohexanecarboxamide], the IC50 [1] was over 10000 nM and the IC50 [2] was 425 nM.

COc1nc(N)c2ncn([C@H]3CC[C@@H](C(=O)Nc4nc(C)cs4)CC3)c2n1 [cpd 84, cis-4-(6-amino-2-methoxy-9H-purin-9-yl)-N-(4-methyl-1,3-thiazol-2-yl)cyclohexanecarboxamide] gave an IC50 [1] of over 10000 nM and an IC50 [2] of 86 nM.

COc1cccc2sc(NC(=O)[C@H]3CC[C@@H](n4cnc5c(N)nc(Cl)nc54)CC3)nc12 [cpd 91, cis-4-(6-amino-2-chloro-9H-purin-9-yl)-N-(4-methoxy-1,3-benzothiazol-2-yl)cyclohexanecarboxamide] was tested, and the IC50 [1] was 7380 nM.

Molecule COc1ccc2nc(NC(=O)[C@H]3CC[C@@H](n4cnc5c(N)nc(Cl)nc54)CC3)sc2c1 [cpd 92, cis-4-(6-amino-2-chloro-9H-purin-9-yl)-N-(6-methoxy-1,3-benzothiazol-2-yl)cyclohexanecarboxamide] has an IC50 [1] of 5030 nM.

NC(=O)Cc1ccc2nc(NC(=O)[C@H]3CC[C@@H](n4cnc5c(N)nc(Cl)nc54)CC3)sc2c1 [cpd 177, cis-4-(6-amino-2-chloro-9H-purin-9-yl)-N-[6-(2-amino-2-oxoethyl)-1,3-benzothiazol-2-yl]cyclohexanecarboxamide] showed an IC50 [1] of 3810 nM.

Work on Nc1nc(Cl)nc2c1ncn2[C@H]1CC[C@@H](C(=O)Nc2nc3c(s2)CN(C2CC2)CC3)CC1 [cpd 184, cis-4-(6-amino-2-chloro-9H-purin-9-yl)-N-(5-cyclopropyl-4,5,6,7-tetrahydro[1,3]thiazolo[5,4-c]pyridin-2-yl)cyclohexanecarboxamide] yielded an IC50 [1] of 6710 nM.

Work on CC1(C)Cc2nc(NC(=O)[C@H]3CC[C@@H](n4cnc5c(N)nc(F)nc54)CC3)sc2C(C)(C)N1 [cpd 190, cis-4-(6-amino-2-fluoro-9H-purin-9-yl)-N-(4,4,6,6-tetramethyl-4,5,6,7-tetrahydro[1,3]thiazolo[5,4-c]pyridin-2-yl)cyclohexanecarboxamide] yielded an IC50 [1] of over 10000 nM.

From patent US10683292B2, “Purine and 3-deazapurine analogues as choline kinase inhibitors” (NERVIANO MEDICAL SCIENCES S.R.L., priority 2016, dated 2020)
